Experimental data reported in patent US20230118795A1, “ARYL OR HETEROARYL PYRIDONE OR PYRIMIDINE DERIVATIVE, PREPARATION METHOD AND USE THEREOF” (SUZHOU ZELGEN BIOPHARMACEUTICALS CO., LTD., priority 2020, published 2023).

Test system: NCI-H358 (KRAS^G12C mutation) cell
Assay: Cell assay of antiproliferative activity against NCI-H358 cell (Celltiter-Glo, 5 days)
Format: cell-based
Conditions: 5 days incubation
Description: Cell Assay of Antiproliferative Activity of Compounds Against NCI-H358 (KRAS^G12C Mutation) Cell.
40 μL phosphate buffer was added to the outer wells of the 384 microplate, and 40 μL cell suspension to be tested was added to the other wells. Then the microplate was incubated in a carbon dioxide incubator overnight.
The compounds to be tested were gradiently diluted, each compound was performed 10 concentration gradients (diluted from 50 μM to 0.003 μM) and added 100 nL to the corresponding wells in the microplate. After addition, 40 μl of phosphate buffer was added to each well in rows A and P and columns 1 and 24, and then the microplate was incubated in a carbon dioxide incubator for 5 days.
20 μL of Promega Celltiter-Glo reagent was added to each well of the microplate, and then the luminescence signal was stabilized by oscillating at room temperature for 10 min. Then PekinElmer Envision multi-label analyzer was used to read.
Finally, GraphPad Prism software was used to calculate the IC50 value of the compound and the fitting curve was drawn.
Anti-proliferative activity of the compounds of the present invention against NCI-H358 (KRAS^G12C mutation) cell was shown in Table 1.

Row | SMILES | IC50 [µM]
1 | C=CC(=O)N1CCN(c2nc(=O)n(-c3cccnc3S(C)(=O)=O)c3nc(-c4c(O)cccc4F)c(F)cc23)[C@@H](C)C1 [Example 54, 4-((S)-4-acryloyl-2-methylpiperazin-1-yl)-6-fluoro-7-(2-fluoro-6-hydroxyphenyl)-1-(2-(methylsulfonyl)pyridin-3-yl) pyridino [2,3-d] pyrimidin-2(1H)-one] | 2.5
2 | C=CC(=O)N1CCN(c2nc(=O)n(-c3ccccc3S(C)(=O)=O)c3nc(-c4c(O)cccc4F)c(F)cc23)CC1CC#N (centres unmarked) [Example 56, 2-(1-acryloyl-4-(6-fluoro-7-(2-fluoro-6-hydroxyphenyl)-1-(2-(methylsulfonyl)phenyl)-2-oxo-1,2-dihydropyridino [2,3-d]pyrimidin-4-yl)piperazin-2-yl) acetonitrile] | 8
3 | C=CC(=O)N1CCN(c2nc(=O)n(-c3c(C)cccc3S(C)(=O)=O)c3nc(-c4c(O)cccc4F)c(F)cc23)CC1CC#N (centres unmarked) [Example 57, 2-(1-acryloyl-4-(6-fluoro-7-(2-fluoro-6-hydroxyphenyl)-1-(2-methyl-6-(methylsulfonyl)phenyl)-2-oxo-1,2-dihydropyridino [2,3-d]pyrimidin-4-yl)piperazin-2-yl) acetonitrile] | 10
4 | C=CC(=O)N1CCN(c2nc(=O)n(-c3c(C(C)C)cccc3S(C)(=O)=O)c3nc(-c4c(Cl)ccc5cn[nH]c45)c(F)cc23)[C@@H](C)C1 [Example 75] | > 10

Same assay, conditions: Homo sapiens, NCI-H358, 120 h, 5 days incubation

Row | SMILES | IC50 [µM]
5 | C=CC(=O)N1CCN(c2nc(=O)n(-c3cnccc3S(C)(=O)=O)c3nc(-c4c(O)cccc4F)c(F)cc23)[C@@H](C)C1 [Example 55] | 5.3
6 | C=CC(=O)N1CCN(c2nc(=O)n(-c3cccnc3S(C)(=O)=O)c3nc(-c4c(O)cccc4F)c(F)cc23)CC1CC#N (centres unmarked) [Example 58, 2-(1-acryloyl-4-(6-fluoro-7-(2-fluoro-6-hydroxyphenyl)-1-(2-(methylsulfonyl)pyridin-3-yl)-2-oxo-1,2-dihydropyridino [2,3-d]pyrimidin-4-yl)piperazin-2-yl) acetonitrile] | 10
7 | C=CC(=O)N1CCN(c2nc(=O)n(-c3c(C)cccc3S(C)(=O)=O)c3nc(-c4c(F)cccc4Cl)c(F)cc23)[C@@H](C)C1 [Example 59, 4-((S)-4-acryloyl-2-methylpiperazin-1-yl)-7-(2-chloro-6-fluorophenyl)-6-fluoro-1-(2-methyl-6-(methylsulfonyl)phenyl) pyridino [2,3-d] pyrimidin-2(1H)-one] | 0.2
8 | C=CC(=O)N1CCN(c2nc(=O)n(-c3ccccc3S(C)(=O)=O)c3nc(-c4c(O)cccc4F)c(F)cc23)C(CC#N)C1 (centres unmarked) [Example 60, 2-(4-acryloyl-1-(6-fluoro-7-(2-fluoro-6-hydroxyphenyl)-1-(2-(methylsulfonyl)phenyl)-2-oxo-1,2-dihydropyridino [2,3-d]pyrimidin-4-yl)piperazin-2-yl) acetonitrile] | > 10
9 | C=CC(=O)N1CCN(c2nc(=O)n(-c3ccccc3S(C)(=O)=O)c3nc(-c4c(O)cccc4F)c(F)cc23)C(CC(N)=O)C1 (centres unmarked) [Example 61, 2-(4-acryloyl-1-(6-fluoro-7-(2-fluoro-6-hydroxyphenyl)-1-(2-(methylsulfonyl)phenyl)-2-oxo-1,2-dihydropyridino [2,3-d]pyrimidin-4-yl)piperazin-2-yl) acetamide] | > 10
10 | C=CC(=O)N1C[C@H](C)N(c2nc(=O)n(-c3c(C4CCC4)cccc3S(C)(=O)=O)c3nc(-c4c(O)cccc4F)c(F)cc23)C[C@H]1C [Example 63A] | 0.37
11 | C=CC(=O)N1CCN(c2nc(=O)n(-c3c(C(C)C)cccc3S(C)(=O)=O)c3nc(-c4cc(C#N)ccc4Cl)c(F)cc23)[C@@H](C)C1 [Example 64, (S)-3-(4-(4-acryloyl-2-methylpiperazin-1-yl)-6-fluoro-1-(2-isopropyl-6-(methylsulfonyl)phenyl)-2-oxo-1,2-dihydropyridino[2,3-d]pyrimidin-7-yl)-4-chlorobenzonitrile] | 0.12
12 | C=CC(=O)N1CCN(c2nc(=O)n(-c3c(C(C)C)cccc3S(C)(=O)=O)c3nc(-c4cccc(C#N)c4Cl)c(F)cc23)[C@@H](C)C1 [Example 65, (S)-3-(4-(4-acryloyl-2-methylpiperazin-1-yl)-6-fluoro-1-(2-isopropyl-6-(methylsulfonyl)phenyl)-2-oxo-1,2-dihydropyridino[2,3-d]pyrimidin-7-yl)-2-chlorobenzonitrile] | > 10
13 | C=CC(=O)N1CCN(c2nc(=O)n(-c3c(C(C)C)cccc3S(C)(=O)=O)c3nc(-c4ccc(C#N)cc4Cl)c(F)cc23)[C@@H](C)C1 [Example 66, (S)-4-(4-(4-acryloyl-2-methylpiperazin-1-yl)-6-fluoro-1-(2-isopropyl-6-(methylsulfonyl)phenyl)-2-oxo-1,2-dihydropyridino [2,3-d]pyrimidin-7-yl)-3-chlorobenzonitrile] | > 10
14 | C=CC(=O)N1CCN(c2nc(=O)n(-c3c(C(C)C)cccc3S(C)(=O)=O)c3nc(-c4c(Cl)cccc4C#N)c(F)cc23)[C@@H](C)C1 [Example 67] | > 10
15 | C=CC(=O)N1CCN(c2nc(=O)n(-c3c(C(C)C)cccc3S(C)(=O)=O)c3nc(-c4ccnn4C)c(F)cc23)[C@@H](C)C1 [Example 68, (S)-4-(4-acryloyl-2-methylpiperazin-1-yl)-6-fluoro-1-(2-isopropyl-6-(methylsulfonyl)phenyl)-7-(1-methyl-1H-pyrazol-5-yl) pyridino [2,3-d] pyrimidin-2(1H)-one] | 2.2
16 | C=CC(=O)N1CCN(c2nc(=O)n(-c3c(C(C)C)cccc3S(C)(=O)=O)c3nc(-c4ccn[nH]4)c(F)cc23)[C@@H](C)C1 [Example 69, (S)-4-(4-acryloyl-2-methylpiperazin-1-yl)-6-fluoro-1-(2-isopropyl-6-(methylsulfonyl)phenyl)-7-(1H-pyrazol-5-yl) pyridino[2,3-d] pyrimidin-2(1H)-one] | > 10
17 | C=CC(=O)N1CCN(c2nc(=O)n(-c3c(C(C)C)cccc3S(C)(=O)=O)c3nc(-c4cncn4C)c(F)cc23)[C@@H](C)C1 [Example 70, (S)-4-(4-acryloyl-2-methylpiperazin-1-yl)-6-fluoro-1-(2-isopropyl-6-(methylsulfonyl)phenyl)-7-(1-methyl-1H-imidazol-5-yl) pyridino [2,3-d] pyrimidin-2 (1H)-one] | > 10
18 | C=CC(=O)N1CCN(c2nc(=O)n(-c3c(C(C)C)cccc3S(C)(=O)=O)c3nc(-c4ccc[nH]c4=O)c(F)cc23)[C@@H](C)C1 [Example 71, (S)-4-(4-acryloyl-2-methylpiperazin-1-yl)-6-fluoro-1-(2-isopropyl-6-(methylsulfonyl)phenyl)-7-(2-oxo-1,2-dihydropyridin-3-yl) pyridino[2,3-d] pyrimidin-2 (1H)-one] | > 10
19 | C=CC(=O)N1CCN(c2nc(=O)n(-c3c(C(C)C)cccc3S(C)(=O)=O)c3nc(-c4cccc(=O)[nH]4)c(F)cc23)[C@@H](C)C1 [Example 72, (S)-4-(4-acryloyl-2-methylpiperazin-1-yl)-6-fluoro-1-(2-isopropyl-6-(methylsulfonyl)phenyl)-7-(6-oxo-1,6-dihydropyridin-2-yl) pyridino[2,3-d] pyrimidin-2 (1H)-one] | > 10
20 | C=CC(=O)N1CCN(c2nc(=O)n(-c3c(C(C)C)cccc3S(C)(=O)=O)c3nc(-c4cccn(C)c4=O)c(F)cc23)[C@@H](C)C1 [Example 73, (S)-4-(4-acryloyl-2-methylpiperazin-1-yl)-6-fluoro-1-(2-isopropyl-6-(methylsulfonyl)phenyl)-7-(1-methyl-2-oxo-1,2-dihydropyridin-3-yl) pyridino[2,3-d] pyrimidin-2 (1H)-one] | > 10
21 | C=CC(=O)N1CCN(c2nc(=O)n(-c3c(C(C)C)cccc3S(C)(=O)=O)c3nc(-c4cccc(=O)n4C)c(F)cc23)[C@@H](C)C1 [Example 74, (S)-4-(4-acryloyl-2-methylpiperazin-1-yl)-6-fluoro-1-(2-isopropyl-6-(methylsulfonyl)phenyl)-7-(1-methyl-6-oxo-1,6-dihydropyridin-2-yl) pyridino[2,3-d] pyrimidin-2 (1H)-one] | > 10
22 | C=CC(=O)N1CCN(c2nc(=O)n(-c3c(C(C)C)cccc3S(C)(=O)=O)c3nc(-c4c(C)ncn4C)c(F)cc23)[C@@H](C)C1 [Example 76, 4-((S)-4-acryloyl-methylpiperazin-1-yl)-7-(1,4-dimethyl-1H-imidazol-5-yl)-6-fluoro-1-(2-isopropyl-6-(methylsulfonyl)phenyl) pyridino [2,3-d] pyrimidin-2 (1H)-one] | > 10
23 | C=CC(=O)N1CCN(c2nc(=O)n(-c3c(C(C)C)cccc3S(C)(=O)=O)c3nc(-c4c(F)cccc4C(=O)OC)c(F)cc23)[C@@H](C)C1 [Example 77] | > 10
24 | C=CC(=O)N1C[C@H](C)N(c2nc(=O)n(-c3c(C(C)C)cccc3S(C)(=O)=O)c3nc(-c4c(O)cccc4F)c(F)cc23)C[C@H]1C [Example 78A] | 0.17
25 | C=CC(=O)N1CCN(c2nc(=O)n(-c3ccccc3S(C)(=O)=O)c3nc(-c4c(O)cccc4F)c(F)cc23)[C@@H](C)C1 [Example 85, 4-((S)-4-acryloyl-2-methylpiperazin-1-yl)-6-fluoro-7-(2-fluoro-6-hydroxyphenyl)-1-(2-(methylsulfonyl)phenyl) pyridino[2,3-d] pyrimidin-2(1H)-one] | < 1
26 | C=CC(=O)N1CCN(c2nc(=O)n(-c3ccccc3S(=O)(=O)C(C)C)c3nc(-c4c(O)cccc4F)c(F)cc23)[C@@H](C)C1 [Example 86, 4-((S)-4-acryloyl-2-methylpiperazin-1-yl)-6-fluoro-7-(2-fluoro-6-hydroxyphenyl)-1-(2-(isopropylsulfonyl)phenyl) pyridino[2,3-d] pyrimidin-2(1H)-one] | < 1
